Patent US10508109B2 (priority 2015, dated 2019)
Structures can show the parent of a compound that is named as a salt. Where two headings read alike, the source gives them in different places.

How the values were obtained:
SUV39H2 = SUV39H2 (Homo sapiens (Human), UniProt Q9H5I1); assay: biochemical; format: biochemical; conditions: 3H-SAM 100 nM, H3 Histone Peptide 350 nM, room temperature 3 hours
Method in brief: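 Scintillation proximity format: reactions were halted with streptavidin SPA beads (50 μg/well final) after 3 h at room temperature with enzyme dosed by lot-specific activity.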

A549 = assay: Cell-based assay, anti-proliferative activity (Cell Counting Kit-8, 72 hours); conditions: Homo sapiens, read-out: A549 IC50
Method in brief: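 Growth read-out after inhibitor treatment of plated cells; potency expressed as IC50.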

[1] = A549 cells, 72 hours exposure, Cell Counting Kit-8

Sequence of SUV39H2 (Q9H5I1 whole entry): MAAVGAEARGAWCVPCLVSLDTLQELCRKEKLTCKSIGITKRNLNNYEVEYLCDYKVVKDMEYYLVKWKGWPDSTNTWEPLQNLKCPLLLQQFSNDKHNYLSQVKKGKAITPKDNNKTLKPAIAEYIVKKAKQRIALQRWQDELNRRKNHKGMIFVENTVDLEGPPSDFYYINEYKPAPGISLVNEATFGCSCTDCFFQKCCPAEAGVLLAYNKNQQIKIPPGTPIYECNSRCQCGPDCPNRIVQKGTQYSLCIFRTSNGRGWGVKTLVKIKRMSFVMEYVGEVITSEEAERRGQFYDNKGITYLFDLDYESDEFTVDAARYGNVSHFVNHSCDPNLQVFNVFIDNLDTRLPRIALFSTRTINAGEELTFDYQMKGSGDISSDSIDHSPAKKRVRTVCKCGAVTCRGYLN

| SMILES | IC50 (SUV39H2) [µM] | IC50 (A549; [1]) [µM] | IC50 (A549; A549, 72 h) [µM] |
| --- | --- | --- | --- |
| COc1cc(OC)c(-c2cn3ccc(N4CC[C@H](NCc5ccc(NC(=O)OC(C)(C)C)cc5)C4)cc3n2)cc1Cl [Example 386, (S)-tert-butyl (4-(((1-(2-(5-chloro-2,4-dimethoxyphenyl)imidazo[1,2-a]pyridin-7-yl)pyrrolidin-3-yl)amino)methyl)phenyl)carbamate] | 0.0248 | 0.73 |  |
| COc1cc(OC)c(-c2cn3cnc(N4CC[C@H](NC(=O)OC(C)(C)C)C4)cc3n2)cc1Cl [Example 387, (S)-tert-butyl (1-(2-(5-chloro-2,4-dimethoxyphenyl)imidazo[1,2-c]pyrimidin-7-yl)pyrrolidin-3-yl)carbamate] | 0.0332 | 1.6 |  |
| COc1cc(OC)c(-c2cn3ccc(N4CCCN(Cc5ccncc5)CC4)cc3n2)cc1Cl [Example 388, 2-(5-chloro-2,4-dimethoxyphenyl)-7-(4-(pyridin-4-ylmethyl)-1,4-diazepan-1-yl)imidazo[1,2-a]pyridine dihydrochloride] | 0.00505 |  | 0.56 |
| COc1cc(OC)c(-c2cn3ccc(N4CCN(c5cc(N(C)C)nc(N)n5)CC4)cc3n2)cc1Cl [Example 389, 6-(4-(2-(5-chloro-2,4-dimethoxyphenyl)imidazo[1,2-a]pyridin-7-yl)piperazin-1-yl)-N^4,N^4-dimethylpyrimidine-2,4-diamine dihydrochloride] | 0.0393 |  | 0.75 |
| COc1cc(OC)c(-c2cn3cnc(N4CCN(S(=O)(=O)C5CC5)CC4)cc3n2)cc1Cl [Example 390, 2-(5-chloro-2,4-dimethoxyphenyl)-7-(4-(cyclopropylsulfonyl)piperazin-1-yl)imidazo[1,2-c]pyrimidine] | 0.0996 | 0.39 |  |
| COc1cc(OC)c(-c2cn3ccc(N[C@H]4C[C@H]5CC[C@@H](C4)N5C(=O)OC(C)C)cc3n2)cc1Cl [Example 391, (1R,3r,5S)-isopropyl 3-((2-(5-chloro-2,4-dimethoxyphenyl)imidazo[1,2-a]pyridin-7-yl)amino)-8-azabicyclo[3.2.1]octane-8-carboxylate] | 0.0793 | 0.99 |  |
| COc1cc(OC)c(-c2cn3ccc(N[C@H]4CC[C@@H](NC(=O)c5ccccc5O)CC4)cc3n2)cc1Cl [Example 392, N-(cis-4-((2-(5-chloro-2,4-dimethoxyphenyl)imidazo[1,2-a]pyridin-7-yl)amino)cyclohexyl)-2-hydroxybenzamide trifluoroacetate] | 0.0527 | 0.68 |  |
| COc1cc(OC)c(-c2cn3ccc(N4CC[C@H](NCc5ccc(N(C)C(=O)OC(C)(C)C)cc5)C4)cc3n2)cc1Cl [Example 394, (S)-tert-butyl (4-(((1-(2-(5-chloro-2,4-dimethoxyphenyl)imidazo[1,2-a]pyridin-7-yl)pyrrolidin-3-yl)amino)methyl)phenyl)(methyl)carbamate] | 0.0103 | 0.8 |  |
| COc1cc(OC)c(-c2cn3ccc(N4CCN(c5ccnc(NCCCO)n5)CC4)cc3n2)cc1Cl [Example 395, 3-((4-(4-(2-(5-chloro-2,4-dimethoxyphenyl)imidazo[1,2-a]pyridine-7-yl)piperazin-1-yl)pyrimidin-2-yl)amino)propan-1-ol] | 0.014 | 0.77 |  |
| CNC1CCN(c2ncc(N3CCN(c4ccn5cc(-c6cc(Cl)c(OC)cc6OC)nc5c4)CC3)cn2)CC1 [Example 396, 1-(5-(4-(2-(5-chloro-2,4-dimethoxyphenyl)imidazo[1,2-a]pyridin-7-yl)piperazin-1-yl)pyrimidin-2-yl)-N-methylpiperidin-4-amine dihydrochloride] | 0.0146 |  | 0.78 |
| COc1cc(OC)c(-c2cn3ccc(N[C@H]4CC[C@H](NCc5cccc(C#N)c5)CC4)cc3n2)cc1Cl [Example 397, 3-((((1r,4r)-4-((2-(5-chloro-2,4-dimethoxyphenyl)imidazo[1,2-a]pyridin-7-yl)amino)cyclohexyl)amino)methyl)benzonitrile] | 0.0646 | 0.7 |  |
| COc1cc(OC)c(-c2cn3ccc(N[C@H]4CC[C@H](Nc5nccc(N6CCN(C)CC6)n5)CC4)cc3n2)cc1Cl [Example 398, (1r,4r)-N^1-(2-(5-chloro-2,4-dimethoxyphenyl)imidazo[1,2-a]pyridin-7-yl)-N^4-(4-(4-methylpiperazin-1-yl)pyrimidin-2-yl)cyclohexane-1,4-diamine] | 0.0233 | 0.44 |  |
| COc1cc(OC)c(-c2cn3ccc(N4CCN(c5ccnc(NCC(C)O)n5)CC4)cc3n2)cc1Cl (stereo not drawn) [Example 399, 1-((4-(4-(2-(5-chloro-2,4-dimethoxyphenyl)imidazo[1,2-a]pyridine-7-yl)piperazin-1-yl)pyrimidin-2-yl)amino)propan-2-ol] | 0.0117 | 0.66 |  |
| COc1cc(OC)c(-c2cn3ccc(N4CC[C@H](NCC5CCN(C(=O)OC(C)(C)C)CC5)C4)cc3n2)cc1Cl [Example 400, (S)-tert-butyl 4-(((1-(2-(5-chloro-2,4-dimethoxyphenyl)imidazo[1,2-a]pyridine-7-yl)pyrrolidin-3-yl)amino)methyl)piperidine-1-carboxylate] | 0.00715 | 0.93 |  |
| CNC1CCN(c2ncc(N3CCN(c4ccn5cc(-c6cc(Cl)c(OC)cc6OC)nc5c4)CC3)cn2)C1 (stereo not drawn) [Example 401, 1-(5-(4-(2-(5-chloro-2,4-dimethoxyphenyl)imidazo[1,2-a]pyridin-7-yl)piperazin-1-yl)pyrimidin-2-yl)-N-methylpyrrolidin-3-amine dihydrochloride] | 0.00681 |  | 0.5 |
| COc1cc(OC)c(-c2cn3ccc(N[C@H]4CC[C@@H](NCc5cccc(F)c5)CC4)cc3n2)cc1Cl [Example 402, cis-N^1-(2-(5-chloro-2,4-dimethoxyphenyl)imidazo[1,2-a]pyridin-7-yl)-N^4-(3-fluorobenzyl)cyclohexane-1,4-diamine bis(2,2,2-trifluoroacetate)] | 0.0187 | 0.74 |  |
| COc1cc(OC)c(-c2cn3ccc(N[C@H]4CC[C@@H](NCc5ccc(C#N)cc5)CC4)cc3n2)cc1Cl [Example 403, 4-((((1s,4s)-4-((2-(5-chloro-2,4-dimethoxyphenyl)imidazo[1,2-a]pyridine-7-yl)amino)cyclohexyl)amino)methyl) benzonitrile] | 0.0151 | 0.75 |  |
| COc1cc(OC)c(-c2cn3ccc(N4CC[C@H](NC(=O)c5ccccn5)C4)cc3n2)cc1Cl [Example 404, (S)—N-(1-(2-(5-chloro-2,4-dimethoxyphenyl)imidazo[1,2-a]pyridin-7-yl)pyrrolidin-3-yl)picolinamide] | 0.00403 | 1.5 |  |
| COc1cc(OC)c(-c2cn3ccc(N4CCN(c5nccc(N6CCC(N)C6)n5)CC4)cc3n2)cc1Cl (stereo not drawn) [Example 405, 1-(2-(4-(2-(5-chloro-2,4-dimethoxyphenyl)imidazo[1,2-a]pyridin-7-yl)piperazin-1-yl)pyrimidin-4-yl)pyrrolidin-3-amine] | 0.0153 | 0.69 |  |
| COc1cc(OC)c(-c2cn3ccc(N[C@H]4CC[C@H](Nc5nccc(N6CCOCC6)n5)CC4)cc3n2)cc1Cl [Example 406, (1r,4r)-N^1-(2-(5-chloro-2,4-dimethoxyphenyl)imidazo[1,2-a]pyridin-7-yl)-N^4-(4-morpholinopyrimidin-2-yl)cyclohexane-1,4-diamine] | 0.037 | 0.74 |  |
| COc1cc(OC)c(-c2cn3ccc(N4CC[C@H](NC(C)c5ccncc5)C4)cc3n2)cc1Cl (stereo partly drawn) [Example 407, (3S)-1-(2-(5-chloro-2,4-dimethoxyphenyl)imidazo[1,2-a]pyridin-7-yl)-N-(1-(pyridin-4-yl)ethyl)pyrrolidin-3-amine dihydrochloride] | 0.0077 |  | 0.95 |
| COc1cc(OC(F)F)c(-c2cn3ccc(N4CC[C@H](NC(=O)OC(C)(C)C)C4)cc3n2)cc1Cl [Example 408, (S)-tert-butyl (1-(2-(5-chloro-2-(difluoromethoxy)-4-methoxyphenyl)imidazo[1,2-a]pyridine-7-yl)pyrrolidin-3-yl)carbamate] | 0.0127 | 0.56 |  |
| COc1cc(OC)c(-c2cn3ccc(N4CCN(/N=C\c5ccncc5)CC4)cc3n2)cc1Cl [Example 410, (Z)-4-(2-(5-chloro-2,4-dimethoxyphenyl)imidazo[1,2-a]pyridin-7-yl)-N-(pyridin-4-ylmethylene)piperazin-1-amine] | 0.00829 | 0.78 |  |
| COc1cc(OC)c(-c2cn3ccc(N[C@H]4CC[C@@H](NCc5ccc([N+](=O)[O-])cc5)CC4)cc3n2)cc1Cl [Example 411, cis-N^1-(2-(5-chloro-2,4-dimethoxyphenyl)imidazo[1,2-a]pyridin-7-yl)-N^4-(4-nitrobenzyl)cyclohexane-1,4-diamine] | 0.0263 | 0.37 |  |
| COc1cc(OC)c(-c2cn3ccc(N4CC[C@H](NCc5ccnc(F)c5)C4)cc3n2)cc1Cl [Example 412, (S)-1-(2-(5-chloro-2,4-dimethoxyphenyl)imidazo[1,2-a]pyridin-7-yl)-N-((2-fluoropyridin-4-yl)methyl)pyrrolidin-3-amine dihydrochloride] | 0.00683 |  | 0.85 |
| COc1cc(OC)c(-c2cn3ccc(N4CC[C@H](NCc5ccnc(Cl)c5)C4)cc3n2)cc1Cl [Example 413, (S)-1-(2-(5-chloro-2,4-dimethoxyphenyl)imidazo[1,2-a]pyridin-7-yl)-N-((2-chloropyridin-4-yl)methyl)pyrrolidin-3-amine dihydrochloride] | 0.00635 |  | 0.77 |
| COc1cc(OC)c(-c2cn3ccc(N[C@H]4CC[C@H](NCc5ccccc5F)CC4)cc3n2)cc1Cl [Example 414, (1r,4r)-N^1-(2-(5-chloro-2,4-dimethoxyphenyl)imidazo[1,2-a]pyridin-7-yl)-N^4-(2-fluorobenzyl)cyclohexane-1,4-diamine] | 0.0848 | 0.82 |  |
